According to US20210269440A1 (BETTA PHARMACEUTICALS CO., LTD, priority 2018, published 2021):
pIC50: −log10 of the molar value.

target: T1, PD-1/PD-L1 protein/protein interaction (Homo sapiens, UniProt Q9NZQ7); assay: PD-1/PD-L1 homogenous time-resolved fluorescence (HTRF) binding assay; conditions: not given
T1 construct: Recombinant human PD-L1 protein (19-238) with a His-tag at the C-terminus; purchased AcroBiosystems PD1-H5229 (PD-L1); PD1-H5257 (PD-1)
Protocol: Resolved Fluorescence (HTRF) Binding Assay
The assays were conducted in a standard black 384-well polystyrene plate with a final volume of […]. Inhibitors were first serially diluted in DMSO and then added to the plate wells before the addition of other reaction components. The final concentration of DMSO in the assay was 1%. The assays were carried out at 25° C. in the PBS buffer (pH 7.4) with 0.05% Tween-20 and 0.1% BSA. […] Plates were centrifuged and proteins were preincubated with inhibitors for 40 min. The incubation was followed by the addition of 10 μL of HTRF detection buffer supplemented with Europium cryptate-labeled anti-human IgG (PerkinElmer-AD0212) specific for Fc and anti-His antibody conjugated to SureLight®—Allophycocyanin (APC, PerkinElmer-AD0059H). After centrifugation, the plate was incubated at 25° C. for 60 min. […] Final concentrations in the assay were […] PD1, 10 nM PD-L1, 1 nM europium anti-human IgG and 20 nM anti-His-Allophycocyanin. IC50 determination was performed by fitting the curve of percent control activity versus the log of the inhibitor concentration using the GraphPad Prism 5.0 software.

T1 sequence (Q9NZQ7 19-238): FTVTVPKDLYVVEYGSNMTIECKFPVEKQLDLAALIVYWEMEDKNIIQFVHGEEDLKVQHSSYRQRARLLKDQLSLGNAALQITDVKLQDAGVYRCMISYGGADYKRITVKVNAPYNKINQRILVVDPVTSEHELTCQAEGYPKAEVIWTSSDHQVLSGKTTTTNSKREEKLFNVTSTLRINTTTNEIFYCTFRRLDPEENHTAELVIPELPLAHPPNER

Compound | pIC50
Cc1c(Nc2nccc3cc(CN4CCCCC4C(=O)O)cnc23)cccc1-c1ccc2ccc(OCCN3CCOCC3)cc2c1 (stereo not shown) [Compound 32, 1-((8-((2-methyl-3-(7-(2-morpholinoethoxy)naphthalen-2-yl)phenyl)amino)-1,7-naphthyridin-3-yl)methyl)piperidine-2-carboxylic acid] | < 6.82
Cc1c(Nc2nccc3cc(CN4CCCCC4C(=O)O)cnc23)cccc1-c1cccc2c1CCC2OCCN1CCOCC1 (stereo not shown) [Compound 56, 1-((8-((2-methyl-3-(1-(2-morpholinoethoxy)-2,3-dihydro-1H-inden-4-yl)phenyl)amino)-1,7-naphthyridin-3-yl)methyl)piperidine-2-carboxylic acid] | < 6.82
Cc1c(Nc2nccc3cc(CN4CC(C(=O)O)C4)cnc23)cccc1-c1cccc(OCCCN2CCOCC2)c1C [Compound 15, 1-((8-((2,2′-dimethyl-3′-(3-morpholinopropoxy)-[1,1′-biphenyl]-3-yl)amino)-1,7-naphthyridin-3-yl)methyl)azetidine-3-carboxylic acid] | > 8.70
Cc1ccc(-c2cccc(Nc3nccc4cc(CN5CCCCC5C(=O)O)cnc34)c2C)c(C)c1OCCCN1CCOCC1 (stereo not shown) [Compound 41, 1-((8-((2,2′,4′-trimethyl-3′-(3-morpholinopropoxy)-[1,1′-biphenyl]-3-yl)amino)-1,7-naphthyridin-3-yl)methyl)piperidine-2-carboxylic acid] | < 6.82
Cc1c(Nc2nccc3cc(CNCC(=O)O)cnc23)cccc1-c1ccc(Cl)c(OCCCN2CCOCC2)c1 [Compound 44, ((8-((4′-chloro-2-methyl-3′-(3-morpholinopropoxy)-[1,1′-biphenyl]-3-yl)amino)-1,7-naphthyridin-3-yl)methyl)glycine] | > 8.70
Cc1c(Nc2nccc3cc(CN4CCCCC4C(=O)O)cnc23)cccc1-c1cccc2c1CCN2CCCN1CCOCC1 (stereo not shown) [Compound 20, 1-((8-((2-methyl-3-(1-(3-morpholinopropyl)indolin-4-yl)phenyl)amino)-1,7-naphthyridin-3-yl)methyl)piperidine-2-carboxylic acid] | < 6.82
Cc1c(Nc2nccc3cc(CN4CCCCC4C(=O)O)cnc23)cccc1-c1cccc(OC(C)CCN2CCOCC2)c1C (stereo not shown) [Compound 55, 1-((8-((2,2′-dimethyl-3′-((4-morpholinobutan-2-yl)oxy)-[1,1′-biphenyl]-3-yl)amino)-1,7-naphthyridin-3-yl)methyl)piperidine-2-carboxylic acid] | 8.00 to 8.70
Cc1c(Nc2nccc3cc(CN4CCCCC4C(=O)O)cnc23)cccc1-c1cccc(OCCCN2CCOCC2)c1Cl (stereo not shown) [Compound 38, 1-((8-((2′-chloro-2-methyl-3′-(3-morpholinopropoxy)-[1,1′-biphenyl]-3-yl)amino)-1,7-naphthyridin-3-yl)methyl)piperidine-2-carboxylic acid] | 8.00 to 8.70
Cc1c(Nc2nccc3cc(CNCC(=O)O)cnc23)cccc1-c1cccc(OCCCN2CCOCC2)c1Cl [Compound 45, ((8-((2′-chloro-2-methyl-3′-(3-morpholinopropoxy)-[1,1′-biphenyl]-3-yl)amino)-1,7-naphthyridin-3-yl)methyl)glycine] | > 8.70
Cc1c(Nc2nccc3cc(CN4CCCCC4C(=O)O)cnc23)cccc1-c1cccc2c1ccn2CCCN1CCOCC1 (stereo not shown) [Compound 34, 1-((8-((2-methyl-3-(1-(3-morpholinopropyl)-1H-indol-4-yl)phenyl)amino)-1,7-naphthyridin-3-yl)methyl)piperidine-2-carboxylic acid] | < 6.82
Cc1c(Nc2nccc3cc(CN4CCCCC4C(=O)O)cnc23)cccc1-c1cccc(OCCCN2CCCCC2)c1C (stereo not shown) [Compound 16, 1-((8-((2,2′-dimethyl-3′-(3-(piperidin-1-yl)propoxy)-[1,1′-biphenyl]-3-yl)amino)-1,7-naphthyridin-3-yl)methyl)piperidine-2-carboxylic acid] | > 8.70
Cc1c(Nc2nccc3cc(CN4CCCCC4C(=O)O)cnc23)cccc1-c1ccc(F)c(OCCCN2CCOCC2)c1 (stereo not shown) [Compound 40, 1-((8-((4′-fluoro-2-methyl-3′-(3-morpholinopropoxy)-[1,1′-biphenyl]-3-yl)amino)-1,7-naphthyridin-3-yl)methyl)piperidine-2-carboxylic acid] | 8.00 to 8.70
Cc1c(Nc2nccc3cc(CN4CCCCC4C(=O)O)cnc23)cccc1-c1cccc(N(C)C(=O)CCN2CCOCC2)c1C (stereo not shown) [Compound 50, 1-((8-((2,2′-dimethyl-3′-(N-methyl-3-morpholinopropanamido)-[1,1′-biphenyl]-3-yl)amino)-1,7-naphthyridin-3-yl)methyl)piperidine-2-carboxylic acid] | < 6.82
Cc1c(Nc2nccc3cc(CNCC(=O)O)cnc23)cccc1-c1cncc(OCCCN2CCOCC2)c1C [Compound 46, ((8-((2-methyl-3-(4-methyl-5-(3-morpholinopropoxy)pyridin-3-yl)phenyl)amino)-1,7-naphthyridin-3-yl)methyl)glycine] | 6.82 to 8.00
Cc1c(Nc2nccc3cc(CN4CCCCC4C(=O)O)cnc23)cccc1-c1cccc(OCCCN2CCOCC2)c1 (stereo not shown) [Compound 36, 1-((8-((2-methyl-3′-(3-morpholinopropoxy)-[1,1′-biphenyl]-3-yl)amino)-1,7-naphthyridin-3-yl)methyl)piperidine-2-carboxylic acid] | 8.00 to 8.70
Cc1c(Nc2nccc3cc(CN4CCCCC4C(=O)O)cnc23)cccc1-c1cccc(OCCCN2CCN(C)CC2)c1C (stereo not shown) [Compound 17, 1-((8-((2,2′-dimethyl-3′-(3-(4-methylpiperazin-1-yl)propoxy)-[1,1′-biphenyl]-3-yl)amino)-1,7-naphthyridin-3-yl)methyl)piperidine-2-carboxylic acid] | 8.00 to 8.70
Cc1c(Nc2nccc3cc(CN(C)CC(=O)O)cnc23)cccc1-c1cccc(OCCCN2CCOCC2)c1C [Compound 11, N-((8-((2,2′-dimethyl-3′-(3-morpholinopropoxy)-[1,1′-biphenyl]-3-yl)amino)-1,7-naphthyridin-3-yl)methyl)-N-methylglycine] | 8.00 to 8.70
Cc1c(Nc2nccc3cc(CN4CCCCC4C(=O)O)cnc23)cccc1-c1cccc(OCCCNC(=N)N)c1C (stereo not shown) [Compound 26, 1-((8-((3′-(3-guanidinopropoxy)-2,2′-dimethyl-[1,1′-biphenyl]-3-yl)amino)-1,7-naphthyridin-3-yl)methyl)piperidine-2-carboxylic acid] | < 6.82
Cc1c(Nc2nccc3cc(CN4CCCCC4C(=O)O)cnc23)cccc1-c1cccc(OCCCNC(N)=O)c1C (stereo not shown) [Compound 25, 1-((8-((2,2′-dimethyl-3′-(3-ureidopropoxy)-[1,1′-biphenyl]-3-yl)amino)-1,7-naphthyridin-3-yl)methyl)piperidine-2-carboxylic acid] | < 6.82
CCNCCCOc1cccc(-c2cccc(Nc3nccc4cc(CN5CCCCC5C(=O)O)cnc34)c2C)c1C (stereo not shown) [Compound 23, 1-((8-((3′-(3-(ethylamino)propoxy)-2,2′-dimethyl-[1,1′-biphenyl]-3-yl)amino)-1,7-naphthyridin-3-yl)methyl)piperidine-2-carboxylic acid] | > 8.70
Cc1c(Nc2nccc3cc(CN4CCCCC4C(=O)O)cnc23)cccc1-c1cccc(OCCCN2CCOCC2)c1C#N (stereo not shown) [Compound 39, 1-((8-((2′-cyano-2-methyl-3′-(3-morpholinopropoxy)-[1,1′-biphenyl]-3-yl)amino)-1,7-naphthyridin-3-yl)methyl)piperidine-2-carboxylic acid] | 8.00 to 8.70
Cc1c(Nc2nccc3cc(CN4CCCCC4C(=O)O)cnc23)cccc1-c1cccc(OCCCN2CCOCC2)c1F (stereo not shown) [Compound 37, 1-((8-((2′-fluoro-2-methyl-3′-(3-morpholinopropoxy)-[1,1′-biphenyl]-3-yl)amino)-1,7-naphthyridin-3-yl)methyl)piperidine-2-carboxylic acid] | 8.00 to 8.70
Cc1c(NC(=O)NCCNCCO)cccc1-c1cccc(Nc2nccc3cc(CN4CCCCC4C(=O)O)cnc23)c1C (stereo not shown) [Compound 51, 1-((8-((3′-(3-(2-((2-hydroxyethyl)amino)ethyl)ureido)-2,2′-dimethyl-[1,1′-biphenyl]-3-yl)amino)-1,7-naphthyridin-3-yl)methyl)piperidine-2-carboxylic acid] | < 6.82

same assay, conditions: HTRF, recombinant human PD-1 (Fc tag) / PD-L1 (His-tag), 25° C., PBS pH 7.4; read-out: IC50

Compound | pIC50
Cc1c(Nc2nccc3cc(CNCC(=O)O)cnc23)cccc1-c1ccccc1 [Compound 2, ((8-((2-methyl-[1,1′-biphenyl]-3-yl)amino)-1,7-naphthyridin-3-yl)methyl)glycine] | 8.52
Cc1c(Nc2nccc3cc(CNCCC(=O)O)cnc23)cccc1-c1cccc(OCCCN2CCOCC2)c1C [Compound 7, 3-(((8-((2,2′-dimethyl-3′-(3-morpholinopropoxy)-[1,1′-biphenyl]-3-yl)amino)-1,7-naphthyridin-3-yl)methyl)amino)propanoic acid] | 9.40
Cc1c(Nc2nccc3cc(CNCC(=O)O)cnc23)cccc1-c1cccc(OCCCN2CCOCC2)c1C [Compound 1, ((8-((2,2′-dimethyl-3′-(3-morpholinopropoxy)-[1,1′-biphenyl]-3-yl)amino)-1,7-naphthyridin-3-yl)methyl)glycine] | 9.37
Cc1c(Nc2nccc3cc(CN4CCC(C(=O)O)C4)cnc23)cccc1-c1cccc(OCCCN2CCOCC2)c1C (stereo not shown) [Compound 9, 1-((8-((2,2′-dimethyl-3′-(3-morpholinopropoxy)-[1,1′-biphenyl]-3-yl)amino)-1,7-naphthyridin-3-yl)methyl)pyrrolidine-3-carboxylic acid] | 8.92

same assay, conditions: R is the group comprising morpholine

Compound | biological activity (potency), as shown in Table 1
Cc1c(Nc2nccc3cc(CNCC(=O)O)cnc23)cccc1-c1cccc(OCCCN2CCOCC2)c1C [Compound 1, ((8-((2,2′-dimethyl-3′-(3-morpholinopropoxy)-[1,1′-biphenyl]-3-yl)amino)-1,7-naphthyridin-3-yl)methyl)glycine] | much more potent
